# Measured values published in patent US20260062443A1 (ALEXION PHARMACEUTICALS, INC., priority 2022, published 2026).
# Biological target: T1, Human complement C1s enzyme (Homo sapiens, UniProt P09871)
# T1 sequence (P09871 438-688 limits assumed): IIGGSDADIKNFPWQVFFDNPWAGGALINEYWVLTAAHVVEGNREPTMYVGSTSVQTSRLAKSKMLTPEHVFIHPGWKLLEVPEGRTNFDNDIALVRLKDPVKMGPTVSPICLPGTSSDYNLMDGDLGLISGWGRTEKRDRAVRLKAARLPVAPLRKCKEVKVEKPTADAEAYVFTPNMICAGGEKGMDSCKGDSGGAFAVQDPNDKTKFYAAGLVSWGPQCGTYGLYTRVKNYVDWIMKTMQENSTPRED
# T1 sequence (P09871 16-437 partner limits assumed): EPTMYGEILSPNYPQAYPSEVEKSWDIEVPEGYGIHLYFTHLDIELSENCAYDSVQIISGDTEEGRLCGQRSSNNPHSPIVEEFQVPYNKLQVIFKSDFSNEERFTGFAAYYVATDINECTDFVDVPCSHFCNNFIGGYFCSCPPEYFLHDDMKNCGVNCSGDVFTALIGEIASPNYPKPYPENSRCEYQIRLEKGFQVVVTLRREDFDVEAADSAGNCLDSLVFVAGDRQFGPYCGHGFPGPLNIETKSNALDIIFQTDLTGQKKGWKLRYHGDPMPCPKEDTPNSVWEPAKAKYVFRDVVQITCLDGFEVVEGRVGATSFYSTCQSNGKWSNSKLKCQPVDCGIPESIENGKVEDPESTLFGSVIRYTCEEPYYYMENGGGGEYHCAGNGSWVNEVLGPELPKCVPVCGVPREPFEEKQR
# Assay: Human C1s enzyme assay
# Format: biochemical
# Details: human complement C1s enzyme 1.16 nM, substrate Z-L-Lys-SBzl 100 μM, 5 min preincubation; read-out: IC50 (Stars), C1s Inhibiting Activity
# How it was run: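 IC50 from nonlinear regression of reaction rates versus compound concentration, with rates taken from A405 recorded at 30 s intervals over 30 min after adding 100 μM Z-L-Lys-SBzl plus 100 μM DTNB. Enzyme was human C1s purified from serum, 1.16 nM, given 5 min compound preincubation at room temperature, pH 7.5 Tris/1 M NaCl.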
row,Compound,IC50 [nM]
1,"O=C(NCC(=O)N1CC2(C[C@H]1C(=O)NCc1cc3cnncc3[nH]1)OCCO2)c1ccc2c(c1)Oc1ccccc1S2 [Compound 37, (S)-N-((1H-pyrrolo[2,3-d]pyridazin-2-yl)methyl)-7-((phenoxathiine-3-carbonyl)glycyl)-1,4-dioxa-7-azaspiro[4.4]nonane-8-carboxamide]",< 100
2,"O=C(NCC(=O)N1C[C@H](OC(F)F)C[C@H]1C(=O)NCc1cc2cnccc2[nH]1)c1ccc(-c2ccccn2)s1 [Compound 381, (2S,4R)-4-(difluoromethoxy)-1-[2-[[5-(2-pyridyl)thiophene-2-carbonyl]amino]acetyl]-N-(1H-pyrrolo[3,2-c]pyridin-2-ylmethyl)pyrrolidine-2-carboxamide]",< 100
3,"Cc1ccc(-c2ccc3c(c2)CN(CC(=O)N2C[C@H](OC(F)F)C[C@H]2C(=O)N[C@H](C)c2cc4cnccc4[nH]2)C3=O)cc1 [Compound 105, (2S,4R)-N-((R)-1-(1H-pyrrolo[3,2-c]pyridin-2-yl)ethyl)-4-(difluoromethoxy)-1-(2-(1-oxo-5-(p-tolyl)isoindolin-2-yl)acetyl)pyrrolidine-2-carboxamide]",< 100
4,"O=C(NCC(=O)N1C[C@H](OC(F)F)C[C@H]1C(=O)NCc1ccc2nc[nH]c2c1)c1ccc2c(c1)Oc1ccccc1S2 [Compound 193, (2S,4R)-N-((1H-benzo[d]imidazol-6-yl)methyl)-4-(difluoromethoxy)-1-((phenoxathiine-3-carbonyl)glycyl)pyrrolidine-2-carboxamide]",> 1000
5,"Cc1nc(N)ccc1CNC(=O)[C@@H]1C[C@]2(C)C[C@@H]2N1C(=O)CNC(=O)c1ccc2c(c1)Oc1ccccc1S2 [Compound 110, (1S,3S,5S)-N-((6-amino-2-methylpyridin-3-yl)methyl)-5-methyl-2-((phenoxathiine-3-carbonyl)glycyl)-2-azabicyclo[3.1.0]hexane-3-carboxamide]",> 1000
6,"O=C(NCC(=O)N1C[C@H](OC(F)F)C[C@H]1C(=O)NCc1ccc2ncoc2c1)c1ccc2c(c1)Oc1ccccc1S2 [Compound 221, (2S,4R)-N-(benzo[d]oxazol-6-ylmethyl)-4-(difluoromethoxy)-1-((phenoxathiine-3-carbonyl)glycyl)pyrrolidine-2-carboxamide]",> 1000
7,"O=C(NCC(=O)N1C[C@H](OC(F)F)C[C@H]1C(=O)NCc1cc2cnccn2c1)c1ccc2c(c1)Oc1ccccc1S2 [Compound 266, (2S,4R)-4-(difluoromethoxy)-1-((phenoxathiine-3-carbonyl)glycyl)-N-(pyrrolo[1,2-a]pyrazin-7-ylmethyl)pyrrolidine-2-carboxamide]",< 100
8,"O=C(NCc1cc2cnccc2[nH]1)[C@@H]1C[C@@H](OC(F)F)CN1C(=O)CN1Cc2ncc(-c3ccc(F)cc3F)cc2C1=O [Compound 135, (2S,4R)-N-((1H-pyrrolo[3,2-c]pyridin-2-yl)methyl)-4-(difluoromethoxy)-1-(2-(3-(2,4-difluorophenyl)-5-oxo-5,7-dihydro-6H-pyrrolo[3,4-b]pyridin-6-yl)acetyl)pyrrolidine-2-carboxamide]",> 1000
9,"O=C(NCC(=O)N1C[C@H](OC(F)F)C[C@H]1C(=O)NCc1cc2cnccc2[nH]1)c1cccc(Oc2ccc(F)cc2)c1 [Compound 154, (2S,4R)-N-((1H-pyrrolo[3,2-c]pyridin-2-yl)methyl)-4-(difluoromethoxy)-1-((3-(4-fluorophenoxy)benzoyl)glycyl)pyrrolidine-2-carboxamide]",< 100
10,"O=C(NCC(=O)N1CC2(C[C@H]1C(=O)NCc1cc3cnccc3[nH]1)OCCO2)c1ccc(-c2ccccc2)cc1 [Compound 17, (S)-N-((1H-pyrrolo[3,2-c]pyridin-2-yl)methyl)-7-(([1,1′-biphenyl]-4-carbonyl)glycyl)-1,4-dioxa-7-azaspiro[4.4]nonane-8-carboxamide]",< 100
11,"C[C@@H](NC(=O)[C@@H]1C[C@@H](S(C)(=O)=O)CN1C(=O)CNC(=O)c1ccc(-c2ccccc2)cc1)c1cc2cnccc2[nH]1 [Compound 82, (2S,4R)-N-((R)-1-(1H-pyrrolo[3,2-c]pyridin-2-yl)ethyl)-1-(([1,1′-biphenyl]-4-carbonyl)glycyl)-4-(methylsulfonyl)pyrrolidine-2-carboxamide]",100 to 1000
12,"Cc1ccc(Oc2cccc(C(=O)NCC(=O)N3C[C@H](OC(F)F)C[C@H]3C(=O)NCc3cc4cnccc4[nH]3)c2)c(F)c1 [Compound 260, (2S,4R)-N-((1H-pyrrolo[3,2-c]pyridin-2-yl)methyl)-4-(difluoromethoxy)-1-((3-(2-fluoro-4-methylphenoxy)benzoyl)glycyl) pyrrolidine-2-carboxamide]",< 100
13,"C[C@@]12C[C@@H]1N(C(=O)CNC(=O)CCCOc1ccccc1)[C@H](C(=O)NC1CN(C(=O)[C@H]3CNCCN3)C1)C2 [Compound 296, (1S,3S,5S)-5-methyl-2-((4-phenoxybutanoyl)glycyl)-N-(1-((R)-piperazine-2-carbonyl)azetidin-3-yl)-2-azabicyclo[3.1.0]hexane-3-carboxamide]",> 1000
14,"C[C@@]12C[C@@H]1N(C(=O)CNC(=O)c1ccc3c(c1)Oc1ccccc1S3)[C@H](C(=O)NCc1cc3c(s1)CNCC3)C2 [Compound 112, (1S,3S,5S)-5-methyl-2-((phenoxathiine-3-carbonyl)glycyl)-N-((4,5,6,7-tetrahydrothieno[2,3-c]pyridin-2-yl)methyl)-2-azabicyclo[3.1.0]hexane-3-carboxamide]",< 100

# Results, then the compound that gave them:
row,IC50 [nM],Compound
1,< 100,"O=C(NCC(=O)N1CC2(C[C@H]1C(=O)NCc1cc3cnccc3[nH]1)OCCO2)c1ccc(Oc2ccccc2)cc1 [Compound 32, (S)-N-((1H-pyrrolo[3,2-]pyridin-2-yl)methyl)-7-((4-phenoxybenzoyl)glycyl)-1,4-dioxa-7-azaspiro[4.4]nonane-8-carboxamide]"
2,> 1000,"O=C(NCC(=O)N1C[C@H](OC(F)F)C[C@H]1C(=O)NCc1ccc2c(c1)NCC2)c1ccc2c(c1)Oc1ccccc1S2 [Compound 198, (2S,4R)-4-(difluoromethoxy)-N-(indolin-6-ylmethyl)-1-((phenoxathiine-3-carbonyl)glycyl)pyrrolidine-2-carboxamide]"
3,> 1000,"O=C(NCC(=O)N1CC2(C[C@H]1C(=O)NCc1cc3ccncn3c1)OCCO2)c1ccc2c(c1)Oc1ccccc1S2 [Compound 276, (S)-7-((phenoxathiine-3-carbonyl)glycyl)-N-(pyrrolo[1,2-c]pyrimidin-6-ylmethyl)-1,4-dioxa-7-azaspiro[4.4]nonane-8-carboxamide]"
4,< 100,"COC[C@H]1C[C@@H](C(=O)NCc2cc3cnccc3[nH]2)N(C(=O)CNC(=O)c2cccc(Oc3ccc(C)cc3F)c2)C1 [Compound 367, (2S,4S)-N-((1H-pyrrolo[3,2-c]pyridin-2-yl)methyl)-1-((3-(2-fluoro-4-methylphenoxy)benzoyl)glycyl)-4-(methoxymethyl)pyrrolidine-2-carboxamide]"
5,> 1000,"Nc1nc(=O)oc2cc(CNC(=O)[C@@H]3C[C@@H](OC(F)F)CN3C(=O)CNC(=O)c3ccc4c(c3)Oc3ccccc3S4)ccc12 [Compound 248, (2S,4R)-N-((4-amino-2-oxo-2H-benzo[e][1,3]oxazin-7-yl)methyl)-4-(difluoromethoxy)-1-((phenoxathiine-3-carbonyl)glycyl)pyrrolidine-2-carboxamide]"
6,100 to 1000,"C[C@@H](NC(=O)[C@@H]1C[C@]2(C)C[C@@H]2N1C(=O)CNC(=O)CCCOc1ccccc1)c1cc2cnccc2[nH]1 [Compound 56, (1S,3S,5S)-N-((R)-1-(1H-pyrrolo[3,2-c]pyridin-2-yl)ethyl)-5-methyl-2-((4-phenoxybutanoyl)glycyl)-2-azabicyclo[3.1.0]hexane-3-carboxamide]"
7,> 1000,"O=C(NCC(=O)N1C[C@H](OC(F)F)C[C@H]1C(=O)NCc1cnc2cn[nH]c2c1)c1ccc2c(c1)Oc1ccccc1S2 [Compound 262, (2S,4R)-N-((1H-pyrazolo[4,3-b]pyridin-6-yl)methyl)-4-(difluoromethoxy)-1-((phenoxathiine-3-carbonyl)glycyl)pyrrolidine-2-carboxamide]"
8,< 100,"CC(C)S(=O)(=O)[C@@H]1C[C@@H](C(=O)N[C@H](C)c2cc3cnccc3[nH]2)N(C(=O)CNC(=O)c2ccc3c(c2)Oc2ccccc2S3)C1 [Compound 133, (2S,4R)-N-((R)-1-(1H-pyrrolo[3,2-c]pyridin-2-yl)ethyl)-4-(isopropylsulfonyl)-1-((phenoxathiine-3-carbonyl)glycyl)pyrrolidine-2-carboxamide]"
9,< 100,"C[C@@H](NC(=O)[C@@H]1CC2(CN1C(=O)CNC(=O)c1cccc(Oc3ccc(F)cc3)c1)OCCO2)c1cc2cnccc2[nH]1 [Compound 240, (S)-N-((R)-1-(1H-pyrrolo[3,2-c]pyridin-2-yl)ethyl)-7-((3-(4-fluorophenoxy)benzoyl)glycyl)-1,4-dioxa-7-azaspiro[4.4]nonane-8-carboxamide]"
